Assay results reported in patent US12617807B2, “Long lasting opioid reversal using hydrogen peroxide-induced release in blood” (University of Cincinnati, priority 2021, dated 2026).
≈ marks a conversion by molar mass, not a printed value.

How the values were obtained:
[1] = test system: 4-NHE (marker of ROS damage); assay: ROS changes in blood of mice, ELISA for 4-NHE; conditions: for effect on ROS levels: injected together with morphine
From the text: This was accomplished using an ELISA assay for 4-NHE that is a marker of ROS damage. See FIG. 9A for an illustration of the process. After a short period, serum was collected and quantification of 4-NHE against spiked blood standards was accomplished using an appropriate antibody.

[2] = test system: opioid-induced respiratory failure and death; assay: rescue of mice from lethal dose of morphine (survival); type: in vivo
Experimental: Experiments were conducted to determine if NPD-2 can rescue a mouse from opioid-induced respiratory failure and death. Mice were administered a lethal dose of morphine by injection intraperitoneally (IP, 400 mg/kg). […] A survival percentage was calculated and graphed.

[3] = in vivo; cited from earlier work
renarcotization = assay: simulated renarcotization, supplemental opioid dose after rescue; conditions: for survival (rescue rate) after initial opioid overdose: initial overdose 400 mg/kg
Experimental: Experiments were conducted to examine the effect of the prodrug of the present invention in a simulated renarcotization situation.

[4] = max solubility in 1×PBS, 20% PEG400; type: physicochemical; conditions: 1×PBS with 20% PEG400, aqueous with cosolvent or surfactant or cyclodextrin
[5] = naloxone in serum of injected mice by LCMS; type: in vivo
Experimental: After 30 minutes the mice were sacrificed. Blood was harvested and allowed to coagulate. Serum was harvested. A small amount of naloxone-D5 was spiked in, 9 vol of MeOH were added, and cooled for 30 min. After centrifugation the supernatant from each sample was dried and submitted to LCMS. […] FIG. 7 is a graph showing the results of the experiment.
Another experiment was conducted following the methodology of Example 1, except the mice were sacrificed at 2 hours instead of 30 minutes. FIG. 8 is a graph showing the results of the experiment.

[6] = 6 mg/kg IP 15 min after morphine 400 mg/kg IP
[7] = 2 mg/kg IP 15 min after morphine 400 mg/kg IP
[8] = 4 mg/kg IP 15 min after morphine 400 mg/kg IP
[9] = 7 mg/kg IP 15 min after morphine 400 mg/kg IP
[10] = 15 mg/kg IP 15 min after morphine 400 mg/kg IP

In the case of `C=CCN1CC[C@]23c4c5ccc(O)c4O[C@H]2C(=O)CC[C@@]3(O)[C@H]1C5` [naloxone, reference compound], the “effect on ROS levels” value [1] is reported as “reduces the ROS levels back to saline treated levels”, the “# dead” value [2, 6] is reported as 1 and the Survival percent [2, 6] is reported as 75%. The Survival rate [2, 6] was 0.75, the metabolic stability [3] was “metabolically instable” and the “survival (rescue rate) after initial opioid overdose” value (renarcotization; 6 mg/kg) was 80%.

With `C=CCN1CCC23c4c5ccc(OCc6ccc(B(O)O)cc6)c4O[C@@H]2C(=O)CC[C@@]3(O)C1C5` (some centres unmarked) [PS-NPD-2] the solubility [4] was about 50 mg/mL (≈ 108 mM), the half-life ([5]; inferred from 2 hour naloxone level in mice) was “potentially longer half-life” and the “naloxone concentration in blood/serum” value ([5]; mice, 30 minutes after injection, LCMS) was “higher concentrations of naloxone”. For the same molecule, the “naloxone in blood compared to naloxone” value ([5]; mice, 2 hours after injection, LCMS) was “more naloxone in mice blood compared to naloxone”, the “effect on ROS levels” value [1] was “reduces the ROS levels back to saline treated levels” and the “# dead” value [2, 7] was 8. For the same molecule, the Survival percent [2, 7] was 0%, the Survival rate [2, 7] was 0 and the “# dead” value [2, 8] was 1. The Survival percent [2, 8] was 0%, the Survival rate [2, 8] was 0 and the “# dead” value [2, 9] was 4. For the same molecule, the Survival percent [2, 9] was 0%, the Survival rate [2, 9] was 0 and the “# dead” value [2, 10] was 1. The Survival percent [2, 10] was 87.5%, the Survival rate [2, 10] was 0.875 and the “survival (rescue rate) after initial opioid overdose” value (renarcotization; 15 mg/kg) was 80%. The “number of surviving animals after supplemental opioid” value (renarcotization; prodrug 15 mg/kg vs naloxone 6 mg/kg, supplemental opioid dose 25 mg/kg, N=8 each group) was “higher number of surviving animals than naloxone”.

For `CN1CC[C@]23c4c5ccc(O)c4O[C@H]2[C@@H](O)C=C[C@H]3[C@H]1C5` [morphine, reference compound], the “increase of ROS (4-NHE)” value ([1]; mouse serum, compound alone) was “more than 10 fold”, the “# dead” value ([2]; morphine 400 mg/kg IP alone) was 2 and the Survival percent ([2]; morphine 400 mg/kg IP alone) was 0%. For the same molecule, the Survival rate ([2]; morphine 400 mg/kg IP alone) was 0.
